According to patent US20250011296A1, “MODULATORS OF MOLECULAR TARGETS EXPRESSED IN METABOLIC AND INFLAMMATORY DISORDERS” (Ohio State Innovation Foundation, priority 2021, published 2025):

Target: T1, PARP-5 (tankyrase-1, TNKS1) (Homo sapiens, UniProt O95271)
T1 construct: purchased BPS Bioscience Inc
T1 sequence (O95271 1-1327): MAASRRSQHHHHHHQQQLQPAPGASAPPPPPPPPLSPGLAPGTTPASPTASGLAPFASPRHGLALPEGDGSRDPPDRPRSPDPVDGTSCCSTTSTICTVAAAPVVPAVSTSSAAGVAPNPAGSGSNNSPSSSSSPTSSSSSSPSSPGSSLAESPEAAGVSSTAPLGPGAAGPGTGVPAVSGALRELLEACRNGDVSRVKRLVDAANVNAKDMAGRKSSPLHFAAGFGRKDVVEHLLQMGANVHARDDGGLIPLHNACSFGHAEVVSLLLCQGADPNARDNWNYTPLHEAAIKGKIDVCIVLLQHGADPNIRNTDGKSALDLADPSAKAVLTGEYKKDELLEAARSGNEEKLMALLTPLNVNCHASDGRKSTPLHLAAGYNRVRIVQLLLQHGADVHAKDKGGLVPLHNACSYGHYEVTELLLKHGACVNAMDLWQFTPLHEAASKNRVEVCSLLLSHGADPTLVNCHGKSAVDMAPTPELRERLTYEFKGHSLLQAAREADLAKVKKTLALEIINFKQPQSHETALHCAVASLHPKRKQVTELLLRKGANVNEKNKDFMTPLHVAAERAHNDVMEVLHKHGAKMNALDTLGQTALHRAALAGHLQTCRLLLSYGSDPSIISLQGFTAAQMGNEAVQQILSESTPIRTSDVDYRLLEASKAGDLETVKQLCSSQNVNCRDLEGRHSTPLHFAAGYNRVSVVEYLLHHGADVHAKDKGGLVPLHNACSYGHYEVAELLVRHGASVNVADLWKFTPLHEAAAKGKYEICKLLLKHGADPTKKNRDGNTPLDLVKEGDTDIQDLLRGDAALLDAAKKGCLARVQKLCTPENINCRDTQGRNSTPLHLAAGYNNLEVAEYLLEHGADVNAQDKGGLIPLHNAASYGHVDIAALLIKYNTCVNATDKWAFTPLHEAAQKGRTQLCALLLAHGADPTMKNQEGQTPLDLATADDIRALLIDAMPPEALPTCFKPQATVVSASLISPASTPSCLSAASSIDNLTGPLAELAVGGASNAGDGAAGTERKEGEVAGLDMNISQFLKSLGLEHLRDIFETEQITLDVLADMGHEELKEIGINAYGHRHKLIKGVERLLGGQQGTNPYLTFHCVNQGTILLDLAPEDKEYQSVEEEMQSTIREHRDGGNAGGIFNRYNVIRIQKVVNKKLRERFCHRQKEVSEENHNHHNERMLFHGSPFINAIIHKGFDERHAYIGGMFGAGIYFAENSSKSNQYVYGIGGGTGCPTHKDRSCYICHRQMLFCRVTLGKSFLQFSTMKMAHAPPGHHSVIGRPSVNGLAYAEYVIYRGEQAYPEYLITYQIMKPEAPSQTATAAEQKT
Experiment: PARP-5 enzyme assay (TNKS1 Histone Ribosylation Assay kit)
Format: biochemical
Conditions: for PARP-5 inhibitory activity / PARP-5% inhibition: 50 μg/mL; for PARP-5% inhibition: Table 20 summary; for inhibition at 50 µg/mL: read-out: PARP-5% inhibition, Table 15, isolates at 50 μg/mL
Procedure: Poly (ADP-ribose) polymerase 5 (PARP-5, also known as tankyrase-1 or TNKS1), is a nuclear enzyme involved in repairing single strand DNA breaks. Agonists of PARP-5 induce DNA repair, but the cost of PARP-5 activation is to slow glycolysis and limit GLUT-4-mediated glucose uptake. Small-molecule inhibition of the PARP-5 enzyme potentiates antidiabetic activities by increasing glucose uptake and insulin sensitivity. Extracts and compounds from the arils of M. fragrans were tested by using the TNKS1 Histone Ribosylation Assay kit (BPS Bioscience Inc.) according to the kit protocol. First, microplate wells were coated with immobilized histone substrate (50 μL) overnight at 4° C., then washed 3 times with PBS-Tween (200 μL). The wells were treated with blocking buffer and washed 3 times with PBS-Tween. The reaction mixture, which contained TNKS assay buffer and NAD+, was added to each sample well. Diluted sample solutions were added to the corresponding wells to achieve final concentrations of 50 μg/mL, followed by TNKS1 enzyme. After 1 hour, the plates were washed 3 times with PBS-Tween and incubated with primary antibody (1:800) for another hour. Following PBS-Tween wash, the secondary-HRP antibody was added (1:1000), incubated for 30 minutes, and finally chemiluminescent substrate was added. The plates were immediately measured for luminescence in the FLUOstar Optima plate reader (BMG Labtechnologies, GmbH, Inc.). The positive control included TNKS1 enzyme, NAD+, and DMSO; the substrate control included enzyme and DMSO; and the negative control included NAD+ and DMSO.297,304 The mace ethyl acetate fractions were screened for PARP-5 inhibition (Table 4).

| SMILES | PARP-5 inhibitory activity | PARP-5% inhibition | inhibition at 50 µg/mL |
| --- | --- | --- | --- |
| C/C=C/c1cc(OC)c2c(c1)[C@H](C)[C@@H](c1ccc3c(c1)OCO3)O2 [Compound 41, licarin B] | not effective PARP-5 inhibitors | <50% | < 50% |
| C/C=C/c1cc(OC)c2c(c1)[C@H](C)[C@@H](c1ccc(O)c(OC)c1)O2 [Compound 42, licarin A] | not effective PARP-5 inhibitors | <50% | < 50% |
